One data set has as its target T1, CCK-2R (Rattus norvegicus, UniProt P30553).
T1 construct: CCK-2R expressing rat pancreatic cancer cells AR42J (CLS GmbH, Eppelheim,; host or cells: AR42J rat pancreatic cancer cells
T1 sequence (P30553 1-452): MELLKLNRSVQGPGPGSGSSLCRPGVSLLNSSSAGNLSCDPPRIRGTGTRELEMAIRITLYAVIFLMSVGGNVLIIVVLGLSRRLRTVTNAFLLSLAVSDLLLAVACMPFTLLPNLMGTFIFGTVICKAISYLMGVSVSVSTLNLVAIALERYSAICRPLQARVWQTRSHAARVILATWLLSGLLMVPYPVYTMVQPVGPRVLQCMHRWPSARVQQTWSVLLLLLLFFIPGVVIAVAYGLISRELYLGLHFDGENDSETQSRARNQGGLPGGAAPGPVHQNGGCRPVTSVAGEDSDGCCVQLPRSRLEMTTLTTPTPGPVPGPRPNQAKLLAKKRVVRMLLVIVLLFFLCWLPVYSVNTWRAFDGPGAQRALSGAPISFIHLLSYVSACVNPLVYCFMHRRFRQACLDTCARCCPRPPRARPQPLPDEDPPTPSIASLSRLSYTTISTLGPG
The data set can be described thus: Competitive binding (IC50) on AR42J cells with [177Lu]Lu-DOTA-PP-F11N as radiolabelled reference. To be noted: natLu-labelled peptide; AR42J cells 2.0 × 10^5/well, 3 h, 37 °C, [177Lu]Lu-DOTA-PP-F11N 0.3 pmol/well. The procedure:
Detailed description of all cell-based experiments is provided in the Supplementary Materials. In brief, competitive binding studies were conducted on AR42J cells (2.0 × 10^5 cells per 1 mL/well) via incubation at 37 °C for 3 h using [^177Lu]Lu-DOTA-PP-F11N (0.3 pmol) as a radiolabelled reference (n = 3).
Cell Culture. CCK-2R expressing rat pancreatic cancer cells AR42J (CLS GmbH, Eppelheim, Germany) were cultivated in monolayers in CELLSTAR ® cell culture flasks acquired from Greiner Bio-One GmbH (Frickenhausen, Germany) at 37 °C in a humidified atmosphere (5% CO2) using a HERAcell 150i-Incubator (Thermo Fisher Scientific Inc., Waltham, United States). As nutrient medium RPMI 1640 medium, supplemented with 5 mM L-Gln 5 mL non-essential amino acids (100×) and 10% FCS, was used. Furthermore, a Dulbecco’s PBS solution with 0.1% EDTA (v/v) was applied to detach the cells for cell passaging. The detached cells were counted using a Neubauer hemocytometer ( Paul Marienfeld, Lauda-Königshofen, Germany). In addition, all operations under sterile conditions were accomplished using a MSC-Advantage safety workbench (Thermo Fisher Scientific Inc., Waltham, United States).
Determination of IC50. AR42J cells (2.0 × 10^5 cells/well) were seeded into 24-well plates 24 ± 2 h prior to testing, using 1 mL of nutrient medium (RPMI 1640, 5 mM L-Gln, 5 mL non-essential amino acids (100×), 10% FCS). Cells were incubated at 37 °C in a humidified atmosphere (5% CO2).
After removal of the medium, each well was washed with 500 μL PBS. For the cell-based assay, 200 μL of nutrient medium (+5% BSA), [177Lu]Lu-DOTA-PP-F11N (25 μL, 0.3 pmol) as a radiolabeled reference and 25 μL of the peptide of interest in increasing concentrations (10−10 to 10−4 M) in triplicate were added to the cells. Thereafter, the assay was incubated for 3 h at 37 °C and thereafter, the supernatant was collected. The cells were washed with 300 μL PBS and the collected supernatant fractions were unified.
After lysis of the cells with NaOH (300 μL, 1 N) for 15 min, the respective wells were washed with NaOH (300 μL, 1 N) and both fractions were unified. The radioactivity of both, the supernatant and the lysed fractions was quantified using a γ-counter (PerkinElmer Inc., Waltham, United States ). The obtained data were evaluated via the GraphPad PRISM software ( GraphPad Software Inc., La Jolla, United States), which calculates the halfmaximal inhibitory concentration ( IC50) of the peptides. […]

A short description of data set [1]: Lipophilicity, n-octanol/PBS (pH 7.4) distribution coefficient. The data set is classed as physicochemical. Conditions: 177Lu-labelled peptide; n-octanol/PBS pH 7.4; read-out: logD7.4. The procedure: Lipophilicity (depicted as octanol-phosphate-buffered saline solution (PBS, pH = 7.4) distribution coefficient, logD7.4) was determined via dissolving the ^177Lu-labelled peptide (approx. 1 MBq) in a mixture (1/1, v/v) of n-octanol and PBS. The suspension was vortexed in a reaction vial (1.5 mL) for 3 min at RT and the vial was centrifuged at 9000× […] for 5 min (Biofuge 15, Heraus Sepatech GmbH, Osterode, Germany). 200 μL aliquots of both layers were measured separately in a γ-counter (Perkin Elmer, Waltham, MA, USA). The experiment was repeated at least five times.

Non-standard residues stand in square brackets, D forms with d. Residues, ends and D or L forms follow the SMILES beside them. *: point of attachment. X1 = O=C(O)CN1CCN(CC(=O)O)CCN([C@H](CCC(=O)*)C(=O)O)CCN(CC(=O)O)CC1; Benzoyl(4-SiFtBu2) = CC(C)(C)[Si](F)(c1ccc(C(=O)*)cc1)C(C)(C)C; Nle = CCCC[C@H](N)C(=O)O; dDap = NC[C@@H](N)C(=O)O

Usually IC50 stands for the concentration at which inhibition is half-maximal. A high value points to lower potency. Regarding `CCCC[C@H](NC(=O)[C@H](Cc1c[nH]c2ccccc12)NC(=O)CNC(=O)[C@H](Cc1ccc(O)cc1)NC(=O)[C@H](C)NC(=O)[C@@H](CCC(=O)O)NC(=O)[C@@H](CCC(=O)O)NC(=O)[C@@H](CNC(=O)c1ccc([Si](F)(C(C)(C)C)C(C)(C)C)cc1)NC(=O)[C@@H](CCC(=O)O)NC(=O)[C@@H](CCC(=O)O)NC(=O)[C@@H](CCC(=O)O)NC(=O)[C@@H](CCC(=O)O)NC(=O)CC[C@H](C(=O)O)N1CCN(CC(=O)O)CCN(CC(=O)O)CCN(CC(=O)O)CC1)C(=O)N[C@@H](CC(=O)O)C(=O)N[C@@H](Cc1ccccc1)C(N)=O` [[nat/177Lu]Lu-(R)-DOTAGA-rhCCK-3, metal not drawn] (X1-[dE][dE][dE][dE][dDap](Benzoyl(4-SiFtBu2))[dE][dE]AYGW[Nle]DF-NH2), the IC50 on CCK-2R is 156 ± 4 nM. Besides, in data set [1], the logD was -2.03 ± 0.1.

The values are drawn from publication PMC9783573, “Introduction of a SiFA Moiety into the D-Glutamate Chain of DOTA-PP-F11N Results in Radiohybrid-Based CCK-2R-Targeted Compounds with Improved Pharmacokinetics In Vivo” (Pharmaceuticals, 2022).
